From ChEMBL document CHEMBL1201862, “PubChem BioAssay data set” (2004)
Calls of active or inactive are those of the source.

Key:
Cytochrome P450 2C19 = Cytochrome P450 2C19 (Homo sapiens, UniProt P33261); test: Cytochrome panel assay with activity outcomes. Panel member name: p450-cyp2c19 Compounds with AC50 equal or less than 10 uM are considered active; assay type: functional
[1] = Trypanosoma cruzi growth suppression in host cells – NIH3T3 host cells, beta-gal luminescence, confirmation (AID 2044); assay type: functional, cell-based;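 also: intracellular parasites grown in NIH/3T3 mouse fibroblasts as host cells; luminescent beta-galactosidase reporter signal from transgenic T. cruzi replicating inside host cells; inhibitors lower the luminescence signal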
[2] = NIH3T3 cell viability loss – ATP luminescence, mouse fibroblasts, counter-screen, dose response (AID 2010); assay type: functional, cell-based;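 also: cells exposed to compound for about 90 hours before reading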
Cytochrome P450 3A4 = Cytochrome P450 3A4 (Homo sapiens, UniProt P08684);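 also: CYP3A4 tested as one member of a cytochrome P450 panel screen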
Chain of Cytochrome P450 3A4 (P08684 whole entry): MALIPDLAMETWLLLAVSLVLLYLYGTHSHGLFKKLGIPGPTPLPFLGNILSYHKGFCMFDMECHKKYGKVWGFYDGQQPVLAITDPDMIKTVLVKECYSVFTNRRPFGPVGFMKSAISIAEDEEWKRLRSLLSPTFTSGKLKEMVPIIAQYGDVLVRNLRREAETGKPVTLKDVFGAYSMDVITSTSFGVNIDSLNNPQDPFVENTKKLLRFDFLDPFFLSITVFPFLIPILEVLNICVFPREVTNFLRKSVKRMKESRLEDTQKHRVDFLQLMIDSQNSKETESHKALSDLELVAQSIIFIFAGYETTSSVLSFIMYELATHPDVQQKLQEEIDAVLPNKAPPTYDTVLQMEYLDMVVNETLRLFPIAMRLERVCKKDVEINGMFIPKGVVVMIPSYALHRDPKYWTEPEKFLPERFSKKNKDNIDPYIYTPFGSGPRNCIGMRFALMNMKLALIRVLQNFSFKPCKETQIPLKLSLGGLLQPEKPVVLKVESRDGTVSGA

[3] = viability of uninfected HEp-2 cells – cell-based, HTS, cytotoxicity control for RSV inhibitor project, dose response (AID 2410); assay type: functional; conditions: human respiratory syncytial virus
[4] = target: T1, Heat shock factor protein 1 (Mus musculus, UniProt P38532); test: decrease of HSF1-responsive luciferase luminescence – cell-based, NIH3T3, dose retest, confirmation (AID 2382); assay type: functional;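 also: NIH3T3 fibroblasts with HSF1-driven luciferase reporter stressed by proteasome inhibitor MG132; luminescence from HSF1-driven luciferase expression after 8 hours of MG132 stress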
T1 sequence (P38532 whole entry): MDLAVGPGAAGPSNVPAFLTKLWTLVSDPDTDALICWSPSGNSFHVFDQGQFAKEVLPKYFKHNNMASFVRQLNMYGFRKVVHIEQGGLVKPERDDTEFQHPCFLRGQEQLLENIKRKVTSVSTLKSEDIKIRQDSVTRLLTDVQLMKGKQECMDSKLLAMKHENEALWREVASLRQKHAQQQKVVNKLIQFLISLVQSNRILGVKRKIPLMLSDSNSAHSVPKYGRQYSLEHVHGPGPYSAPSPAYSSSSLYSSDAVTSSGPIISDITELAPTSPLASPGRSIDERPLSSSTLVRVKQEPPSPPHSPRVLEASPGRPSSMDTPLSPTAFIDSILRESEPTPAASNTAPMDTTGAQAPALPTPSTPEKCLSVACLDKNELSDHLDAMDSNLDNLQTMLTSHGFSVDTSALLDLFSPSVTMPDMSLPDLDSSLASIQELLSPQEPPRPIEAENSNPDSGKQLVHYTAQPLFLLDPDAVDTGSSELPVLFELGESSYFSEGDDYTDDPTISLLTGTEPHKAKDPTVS

H4 = test: Luminescence Cell-Based Dose Response HTS to Identify Activators of 5'UTR Stem-Loop Driven Prion Protein mRNA Translation in H4 Neuroglioblastoma Cells. [Related pubchem assays: 1829 (Project Summary), 1814 (Primary HTS)]; assay type: functional; conditions: Homo sapiens
[5] = Luminescence Cell-Based Dose Response HTS to Identify Activators of Luciferase Translation or Activity in H4 […] Cells. [Related pubchem assays: 1829 (Project Summary), 1814 (Primary HTS)]; assay type: functional
[6] = target: T2, Corticotropin-releasing factor receptor 2/Corticotropin-releasing factor-binding protein (Homo sapiens, UniProt P24387+Q13324); test: activators of CRF receptor 2 with binding protein – uHTS hits, confirmation (AID 602473); assay type: functional; conditions: read-out: EC50_Mean
T2 sequence (Q13324 whole entry): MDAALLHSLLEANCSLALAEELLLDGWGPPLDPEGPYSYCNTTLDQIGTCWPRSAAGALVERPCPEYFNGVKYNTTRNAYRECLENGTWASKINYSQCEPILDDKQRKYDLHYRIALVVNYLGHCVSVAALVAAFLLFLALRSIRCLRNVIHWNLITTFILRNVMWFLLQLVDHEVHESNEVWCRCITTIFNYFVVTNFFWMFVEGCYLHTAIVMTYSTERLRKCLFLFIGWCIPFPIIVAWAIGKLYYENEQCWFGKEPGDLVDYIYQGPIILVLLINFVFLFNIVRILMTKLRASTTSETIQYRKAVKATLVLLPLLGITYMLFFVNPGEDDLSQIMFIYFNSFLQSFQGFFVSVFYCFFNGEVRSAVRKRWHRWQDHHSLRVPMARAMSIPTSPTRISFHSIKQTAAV
T2 sequence (P24387 whole entry): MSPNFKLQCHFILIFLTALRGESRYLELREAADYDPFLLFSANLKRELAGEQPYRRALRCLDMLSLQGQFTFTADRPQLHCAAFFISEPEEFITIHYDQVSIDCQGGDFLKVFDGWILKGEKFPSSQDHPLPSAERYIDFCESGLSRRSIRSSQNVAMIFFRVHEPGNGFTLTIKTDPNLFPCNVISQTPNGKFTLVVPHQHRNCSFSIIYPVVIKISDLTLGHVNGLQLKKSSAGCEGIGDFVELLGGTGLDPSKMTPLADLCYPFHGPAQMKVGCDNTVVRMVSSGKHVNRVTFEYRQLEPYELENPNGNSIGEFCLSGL

Chain of Cytochrome P450 2C19 (P33261 whole entry): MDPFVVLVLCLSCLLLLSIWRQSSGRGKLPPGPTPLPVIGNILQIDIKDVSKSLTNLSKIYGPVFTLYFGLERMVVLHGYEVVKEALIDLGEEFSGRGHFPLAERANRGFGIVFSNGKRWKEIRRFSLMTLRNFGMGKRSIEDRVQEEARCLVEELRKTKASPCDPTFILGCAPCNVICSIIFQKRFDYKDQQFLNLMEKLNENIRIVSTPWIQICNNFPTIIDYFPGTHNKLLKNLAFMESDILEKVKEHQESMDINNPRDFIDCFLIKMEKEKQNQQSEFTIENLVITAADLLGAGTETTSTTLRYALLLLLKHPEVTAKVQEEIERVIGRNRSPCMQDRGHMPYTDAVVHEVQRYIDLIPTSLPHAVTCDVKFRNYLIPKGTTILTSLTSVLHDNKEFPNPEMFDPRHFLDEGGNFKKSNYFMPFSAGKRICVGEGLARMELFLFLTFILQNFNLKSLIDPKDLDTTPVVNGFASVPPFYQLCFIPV

CC(C)(C)c1ccc(OCC(=O)O)c(Cl)c1
AC50 (Cytochrome P450 2C19): inconclusive

Cc1nc(C(=O)NC2CCCCC2)sc1C1(C)CC(c2cccnc2)=NO1 (stereo not given)
EC50 [1]: 1.3 µM (active) | EC50 [2]: > 60 µM (not active)

COc1ccc2cc(CN(Cc3cccnc3)Cc3nnnn3Cc3ccccc3)c(O)nc2c1
EC50 [1]: 0.554 µM (active) | EC50 [2]: > 60 µM (not active)

CN1CCN(CCCNC(=O)c2ccc(CSCc3cccc(Cl)c3)o2)CC1
AC50 (Cytochrome P450 3A4): 22.4 µM (inconclusive)

c1ccc2c[n+](Cc3ccnc4ccccc34)ccc2c1
AC50 (Cytochrome P450 3A4): 1.26 µM (inconclusive)

O=C(NCCOc1ccccc1F)c1cccc(S(=O)(=O)N2CCN(c3ccccc3)CC2)c1
CC50 [3]: 22.2 µM (active)

CCOc1ccc(NC(=O)C(C)NS(=O)(=O)c2ccc(NC(C)=O)cc2)cc1 (stereo not given)
EC50 [4]: > 195 µM (not active)

CCOC(=O)c1cccnc1NC(=O)c1ccncc1
EC50 [4]: > 195 µM (not active)

CNc1ccnc(-c2ccccc2C)n1
AC50 (Cytochrome P450 3A4): 15.8 µM (inconclusive) | AC50 (Cytochrome P450 2C19; read-out: AC50): 31.6 µM (inconclusive)

CC[C@@H]1OC(=O)[C@H](C)[C@H](O[C@@H]2C[C@](C)(OC)[C@H](O)[C@H](C)O2)[C@H](C)[C@H](O[C@@H]2O[C@@H](C)C[C@@H](N(C)C)[C@@H]2O)[C@](C)(O)C[C@H](C)C(=NOCOCCOC)[C@H](C)[C@H](O)[C@]1(C)O
AC50 (Cytochrome P450 3A4): 12.6 µM (inconclusive)

COc1ccc(F)cc1C(=O)C1CCCN(Cc2cnc(N3CCCC3)s2)C1 (stereo not given)
EC50 [1]: 0.303 µM (active) | EC50 [2]: > 60 µM (not active)

Cn1c(N)c(C(=O)Nc2ccc3ccccc3c2)sc1=S
EC50 (H4): 0.279 µM (active) | EC50 [5]: 0.117 µM (active)

Cc1ccc(-c2csc3ncnc(NCCN4CCOCC4)c23)cc1
AC50 (Cytochrome P450 3A4): 1.12 µM (inconclusive)

Cc1ccccc1NC(=O)c1ccc2c(c1)OCCO2
EC50 [4]: > 195 µM (not active)

O=C(Nc1ccc(Br)cc1)c1c[nH]cn1
EC50 (H4): 28.8 µM (active) | EC50 [5]: 34.8 µM (active)

C=CC[N+]1(CC#CCOC(c2ccccc2)c2ccccc2)CCOCC1.[Cl-]
AC50 (Cytochrome P450 2C19): inconclusive

O=C(Cn1cnc2ccccc21)NC(c1ccccc1)c1ccccc1
AC50 (Cytochrome P450 2C19; read-out: AC50): 20 µM (inconclusive)

CCOC(=O)c1sc2nc3n(c(=O)c2c1C)CCC(C)CC3 (stereo not given)
CC50 [3]: 38.3 µM (active)

Cc1cc2c(cc1S(=O)(=O)CCC(=O)NC1CCCCC1C)OCC(=O)N2 (stereo not given)
EC50 [6]: > 53 µM (inactive)

O=[N+]([O-])c1ccc(S(=O)(=O)NCC(c2ccco2)N2CCc3ccccc3C2)cc1 (stereo not given)
EC50 [1]: 1.86 µM (active) | EC50 [2]: > 60 µM (not active)

CC1CCN(C(=O)CSc2nc3ccccc3c(=O)n2Cc2ccc3c(c2)OCO3)CC1
CC50 [3]: 33.5 µM (active)

C[C@H]1O[C@@H](O[C@H]2CC[C@@]3(C)C(CC[C@]4(C)C3C=C[C@]35OC[C@@]6(CCC(C)(C)C[C@H]63)[C@@H](O)C[C@]54C)[C@]2(C)CO)[C@H](O)[C@@H](O[C@@H]2O[C@H](CO)[C@@H](O)[C@H](O)[C@H]2O)[C@H]1O (stereo not given in full)
EC50 [6]: 9.4 µM (active)

CCOC(=O)c1cn(Cc2ccccc2)c(C(=O)OC(C)(C)C)c1O
EC50 [6]: 5.22 µM (active)

CCCCCCc1cc2cc(C(=N)NNC(=O)c3ccncc3)c(=O)oc2cc1O
EC50 [6]: 1.11 µM (active)

O=[N+]([O-])c1ccccc1/C=C/C=N/Nc1ccc(S(=O)(=O)Nc2ccc(Cl)cc2)cc1[N+](=O)[O-]
EC50 [1]: 1.35 µM (active) | EC50 [2]: > 60 µM (not active)

O=C(NCCCN1CCOCC1)c1cc(C(=O)C2CC2)c[nH]1
AC50 (Cytochrome P450 2C19; read-out: AC50): 3.98 µM (inconclusive)

CCOc1cc(/C=N/NC(N)=S)cc(Br)c1OCc1ccccc1C
EC50 [1]: 0.114 µM (active) | EC50 [2]: > 60 µM (inconclusive)

CC(=O)c1cccc(/N=C/C2=C(O)OC3(CCCCC3)OC2=O)c1
AC50 (Cytochrome P450 3A4): 35.5 µM (inconclusive) | AC50 (Cytochrome P450 2C19): inconclusive

CCOc1nn(-c2ccccc2)c(O)c1/C=N/c1ccc(Cl)cc1
AC50 (Cytochrome P450 3A4): 20 µM (inconclusive)

C[C@]12CCC3C(CCC4=C/C(=N/OCC(=O)NC(CCC(N)=O)C(=O)O)CC[C@@]43C)C1CCC2O (stereo not given in full)
CC50 [3]: 22.6 µM (active)
